In brackets after ≈: the same amount, converted by molar mass. Activity calls are given as the source filed them. The calls are words filed in the database; no cut-off is given here.
Tests used:
Candida albicans [1] = assay: Antibiofilm activity against Candida albicans SC5314 assessed as inhibition of biofilm formation at 64 ug/mL incubated for 24 hrs by XTT assay relative to control; assay type: functional
Saccharomyces cerevisiae [2] = assay: Antifungal activity against recombinant Saccharomyces cerevisiae Y2711 overexpressing CnErg11 assessed as inhibition of fungal growth incubated for 48 hrs by CLSI based broth microdilution assay; assay type: functional
Saccharomyces cerevisiae [3] = assay: Antifungal activity against recombinant Saccharomyces cerevisiae Y2459 overexpressing CaErg11/CaCpr assessed as inhibition of fungal growth incubated for 48 hrs by CLSI based broth microdilution assay; assay type: functional
[4] = molecular target: T1, Lanosterol 14-alpha demethylase (Candida albicans (strain SC5314 / ATCC MYA-2876) (Yeast), UniProt P10613); assay: Inhibition of CYP51 in Candida albicans SC5314 assessed as 14alpha-methylfecosterol level at 0.0625 ug/ml after 8 hrs by GC-MS analysis relative to control; design: scale not given: the % may be the effect or the level left; details: at 0.0625 µg/mL
Saccharomyces cerevisiae [5] = assay: Antifungal activity against recombinant Saccharomyces cerevisiae Y525 overexpressing CaMdr1 assessed as inhibition of fungal growth incubated for 48 hrs by CLSI based broth microdilution assay; assay type: functional
Saccharomyces cerevisiae [6] = assay: Antifungal activity against recombinant Saccharomyces cerevisiae Y2767 overexpressing CauErg11 assessed as inhibition of fungal growth incubated for 48 hrs by CLSI based broth microdilution assay; assay type: functional
[Candida] auris [7] = Antifungal activity against fluconazole-resistant Candida auris 919 assessed as inhibition of fungal growth incubated for 48 hrs by CLSI based broth microdilution assay; assay type: functional; details: Candidozyma auris
Saccharomyces cerevisiae [8] = assay: Selectivity index, ratio of MIC for antifungal activity against recombinant Saccharomyces cerevisiae Y525 overexpressing CaMdr1 to MIC for antifungal activity against recombinant Saccharomyces cerevisiae Y2411 overexpressing ScErg11; assay type: functional
Saccharomyces cerevisiae [9] = assay: Antifungal activity against recombinant Saccharomyces cerevisiae Y2765 overexpressing CauMdr1 assessed as inhibition of fungal growth incubated for 48 hrs by CLSI based broth microdilution assay; assay type: functional
Saccharomyces cerevisiae [10] = assay: Antifungal activity against recombinant Saccharomyces cerevisiae Y2300 overexpressing ScErg11 assessed as inhibition of fungal growth incubated for 48 hrs by CLSI based broth microdilution assay; assay type: functional
Saccharomyces cerevisiae [11] = assay: Antifungal activity against recombinant Saccharomyces cerevisiae Y2411 overexpressing ScErg11 assessed as inhibition of fungal growth incubated for 48 hrs by CLSI based broth microdilution assay; assay type: functional
Candida albicans [12] = assay: Antifungal activity against Candida albicans SC5314 assessed as inhibition of hyphae length after 3 hrs by inverted microscopic analysis; assay type: functional, organism-based; details: dose 0.0625-1 µg/ml
[13] = molecular target: T1, Lanosterol 14-alpha demethylase; assay: Inhibition of CYP51 in Candida albicans SC5314 assessed as obtusifoliol level at 0.0625 ug/ml after 8 hrs by GC-MS analysis relative to control; design: scale not given: the % may be the effect or the level left; details: at 0.0625 µg/mL
Candida tropicalis [14] = assay: Potency index, ratio of fluconazole MIC to test compound MIC for antifungal activity against Candida tropicalis 8915 assessed as inhibition of fungal growth incubated for 48 hrs by CLSI based broth microdilution assay; assay type: functional
Saccharomyces cerevisiae [15] = assay: Antifungal activity against recombinant Saccharomyces cerevisiae Y2766 overexpressing CauCdr1 assessed as inhibition of fungal growth incubated for 48 hrs by CLSI based broth microdilution assay; assay type: functional
Saccharomyces cerevisiae [16] = assay: Antifungal activity against recombinant Saccharomyces cerevisiae Y2374 overexpressing CgErg11 assessed as inhibition of fungal growth incubated for 48 hrs by CLSI based broth microdilution assay; assay type: functional
Candida tropicalis [17] = assay: Antifungal activity against Candida tropicalis 8915 assessed as inhibition of fungal growth incubated for 48 hrs by CLSI based broth microdilution assay; assay type: functional
Candida albicans [18] = assay: Antifungal activity against Candida albicans SC5314 assessed as inhibition of hyphae formation at 0.625 ug/ml after 3 hrs by inverted microscopic analysis relative to control; assay type: functional
[19] = molecular target: T1, Lanosterol 14-alpha demethylase; assay: Inhibition of CYP51 in Candida albicans SC5314 assessed as lanosterol level at 0.0625 ug/ml after 8 hrs by GC-MS analysis (reference value: 5.9 %); design: scale not given: the % may be the effect or the level left; details: at 0.0625 µg/mL
Saccharomyces cerevisiae [20] = assay: Antifungal activity against recombinant Saccharomyces cerevisiae Y2462 overexpressing ScErg11/ScNcp1 assessed as inhibition of fungal growth incubated for 48 hrs by CLSI based broth microdilution assay; assay type: functional
Nakaseomyces glabratus [21] = assay: Antifungal activity against Candida glabrata 537 assessed as inhibition of fungal growth at 2 ug/ml measured up to 48 hrs by TECAN plate reader analysis; assay type: functional, organism-based; details: dose 2.0 µg/ml
[22] = Cytotoxicity against HUVEC cells assessed as cell viability at 128 ug/ml incubated for 24 hrs by CCK-8 assay relative to control; assay type: toxicity, cell-based; details: human, at 128 µg/mL, read-out: Activity
Candida parapsilosis [23] = assay: Antifungal activity against Candida parapsilosis 22019 assessed as inhibition of fungal growth incubated for 48 hrs by CLSI based broth microdilution assay; assay type: functional; details: Lodderomyces parapsilosis
Saccharomyces cerevisiae [24] = assay: Antifungal activity against recombinant Saccharomyces cerevisiae Y2721 overexpressing CpErg11/CpCpr assessed as inhibition of fungal growth incubated for 48 hrs by CLSI based broth microdilution assay; assay type: functional
Cryptococcus neoformans = assay: Antifungal activity against Cryptococcus neoformans 32609 assessed as inhibition of fungal growth incubated for 72 hrs by CLSI based broth microdilution assay; assay type: functional
[Candida] auris [25] = Antifungal activity against fluconazole-resistant Candida auris 918 assessed as inhibition of fungal growth incubated for 48 hrs by CLSI based broth microdilution assay; assay type: functional; details: Candidozyma auris
Saccharomyces cerevisiae [26] = assay: Antifungal activity against recombinant Saccharomyces cerevisiae Y570 overexpressing CaCdr1 assessed as inhibition of fungal growth incubated for 48 hrs by CLSI based broth microdilution assay; assay type: functional
[27] = molecular target: T1, Lanosterol 14-alpha demethylase; assay: Inhibition of CYP51 in Candida albicans SC5314 assessed as ergosterol level at 0.0625 ug/ml after 8 hrs by GC-MS analysis (reference value: 86.2 %); design: scale not given: the % may be the effect or the level left; details: at 0.0625 µg/mL
Candida albicans [28] = assay: Antifungal activity against Candida albicans 10231 assessed as inhibition of fungal growth incubated for 48 hrs by CLSI based broth microdilution assay; assay type: functional
Candida albicans [29] = assay: Antifungal activity against fluconazole-resistant Candida albicans 901 assessed as inhibition of fungal growth incubated for 48 hrs by CLSI based broth microdilution assay; assay type: functional
[30] = molecular target: T1, Lanosterol 14-alpha demethylase; assay: Inhibition of CYP51 in Candida albicans SC5314 assessed as eburicol level at 0.0625 ug/ml after 8 hrs by GC-MS analysis relative to control; design: scale not given: the % may be the effect or the level left; details: at 0.0625 µg/mL
[Candida] auris [31] = Antifungal activity against fluconazole-resistant Candida auris 891 assessed as inhibition of fungal growth incubated for 48 hrs by CLSI based broth microdilution assay; assay type: functional; details: Candidozyma auris
Nakaseomyces glabratus [32] = assay: Antifungal activity against Candida glabrata 537 assessed as inhibition of fungal growth incubated for 48 hrs by CLSI based broth microdilution assay; assay type: functional
Candida albicans [33] = assay: Antibiofilm activity against Candida albicans SC5314 assessed as increase in matured biofilm distruption incubated for 24 hrs by XTT assay; assay type: functional, organism-based; details: dose 0.25-64 µg/ml
Saccharomyces cerevisiae [34] = assay: Antifungal activity against recombinant Saccharomyces cerevisiae Y2768 overexpressing CauErg11 T132F mutant assessed as inhibition of fungal growth incubated for 48 hrs by CLSI based broth microdilution assay; assay type: functional
Candida albicans [35] = assay: Antibiofilm activity against Candida albicans SC5314 assessed as increase in matured biofilm distruption at 64 ug/ml incubated for 24 hrs by XTT assay relative to control; assay type: functional; details: dose 64 µg/ml
Candida albicans [36] = assay: Antifungal activity against Candida albicans SC5314 assessed as inhibition of fungal growth at 0.125 ug/ml after 48 hrs by TECAN plate reader analysis relative to control; assay type: functional
Candida parapsilosis [37] = assay: Antifungal activity against Candida parapsilosis 22019 assessed as inhibition of fungal growth at 0.125 ug/ml measured up to 48 hrs by TECAN plate reader analysis; assay type: functional, organism-based; details: dose 0.125 µg/ml
Saccharomyces cerevisiae [38] = assay: Antifungal activity against recombinant Saccharomyces cerevisiae Y2716 overexpressing CpErg11 Y132F mutant/ CpCpr assessed as inhibition of fungal growth incubated for 48 hrs by CLSI based broth microdilution assay; assay type: functional
Saccharomyces cerevisiae [39] = assay: Antifungal activity against recombinant Saccharomyces cerevisiae Y2769 overexpressing CauErg11 K143R mutant assessed as inhibition of fungal growth incubated for 48 hrs by CLSI based broth microdilution assay; assay type: functional
Saccharomyces cerevisiae [40] = assay: Antifungal activity against recombinant Saccharomyces cerevisiae Y2513 overexpressing ScErg11 Y140H mutant assessed as inhibition of fungal growth incubated for 48 hrs by CLSI based broth microdilution assay; assay type: functional
Candida albicans [41] = assay: Antifungal activity against Candida albicans SC5314 assessed as inhibition of fungal growth incubated for 48 hrs by CLSI based broth microdilution assay; assay type: functional
Saccharomyces cerevisiae [42] = assay: Antifungal activity against recombinant Saccharomyces cerevisiae Y2301 overexpressing ScErg11 Y140F mutant assessed as inhibition of fungal growth incubated for 48 hrs by CLSI based broth microdilution assay; assay type: functional
Pichia kudriavzevii = assay: Antifungal activity against Candida krusei 4996 assessed as inhibition of fungal growth incubated for 48 hrs by CLSI based broth microdilution assay; assay type: functional
Candida albicans [43] = assay: Antifungal activity against fluconazole-resistant Candida albicans 904 assessed as inhibition of fungal growth incubated for 48 hrs by CLSI based broth microdilution assay; assay type: functional
Candida tropicalis [44] = assay: Potency index, ratio of ravuconazole MIC to test compound MIC for antifungal activity against Candida tropicalis 8915 assessed as inhibition of fungal growth incubated for 48 hrs by CLSI based broth microdilution assay; assay type: functional

T1 sequence (P10613 whole entry): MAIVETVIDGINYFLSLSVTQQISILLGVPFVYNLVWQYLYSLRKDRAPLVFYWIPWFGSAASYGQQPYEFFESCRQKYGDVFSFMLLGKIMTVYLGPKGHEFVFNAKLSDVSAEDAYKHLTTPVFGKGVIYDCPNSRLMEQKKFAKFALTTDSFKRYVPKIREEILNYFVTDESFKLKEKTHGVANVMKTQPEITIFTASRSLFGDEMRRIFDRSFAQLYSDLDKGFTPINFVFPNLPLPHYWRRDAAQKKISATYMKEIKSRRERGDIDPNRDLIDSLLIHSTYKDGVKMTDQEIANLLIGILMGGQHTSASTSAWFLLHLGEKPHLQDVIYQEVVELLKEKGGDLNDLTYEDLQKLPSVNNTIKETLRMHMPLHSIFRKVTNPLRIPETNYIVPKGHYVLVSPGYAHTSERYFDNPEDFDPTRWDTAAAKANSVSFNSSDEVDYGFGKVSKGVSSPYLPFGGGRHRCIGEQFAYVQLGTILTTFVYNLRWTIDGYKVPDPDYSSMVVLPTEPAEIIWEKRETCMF

SMILES: C[C@@H](OCc1ccn(Cc2ccc(F)cc2)n1)[C@](O)(Cn1cncn1)c1ccc(F)cc1F
- inhibition at 64 µg/mL (Candida albicans [1]): > 55%
- MIC (Saccharomyces cerevisiae [2]): 0.008 µg/mL
- MIC (Saccharomyces cerevisiae [3]): 0.0313 µg/mL
- Activity [4]: ~ 20%
- MIC (Saccharomyces cerevisiae [5]): 0.25 µg/mL
- MIC (Saccharomyces cerevisiae [6]): 0.0313 µg/mL
- MIC ([Candida] auris [7]): 16 µg/mL (≈ 35 µM)
- Ratio (Saccharomyces cerevisiae [8]): 16
- MIC (Saccharomyces cerevisiae [9]): 0.25 µg/mL
- MIC (Saccharomyces cerevisiae [10]): 0.063 µg/mL
- MIC (Saccharomyces cerevisiae [11]): 0.016 µg/mL
- inhibition (Candida albicans [12]): Dose-Dependent Effect
- Activity [13]: ~ 20%
- Ratio (Candida tropicalis [14]): 256
- MIC (Saccharomyces cerevisiae [15]): 4 µg/mL
- MIC (Saccharomyces cerevisiae [16]): 0.0313 µg/mL
- MIC (Candida tropicalis [17]): 0.25 µg/mL (≈ 0.547 µM)
- inhibition at 0.625 µg/mL (Candida albicans [18]): 100%
- Activity [19]: > 25%
- MIC (Saccharomyces cerevisiae [20]): 0.125 µg/mL
- inhibition (Nakaseomyces glabratus [21]): inactive
- viability at 24 h, 128 ug/ml [22]: 75.8%
- MIC (Candida parapsilosis [23]): 0.25 µg/mL (≈ 0.547 µM)
- MIC (Saccharomyces cerevisiae [24]): 0.0313 µg/mL
- MIC (Cryptococcus neoformans): 0.25 µg/mL (≈ 0.547 µM)
- MIC ([Candida] auris [25]): 16 µg/mL (≈ 35 µM)
- MIC (Saccharomyces cerevisiae [26]): 32 µg/mL
- Activity [27]: 1.4%
- MIC (Candida albicans [28]): ≤ 0.125 µg/mL
- MIC (Candida albicans [29]): 2 µg/mL (≈ 4.37 µM)
- Activity [30]: ~ 20%
- MIC ([Candida] auris [31]): 16 µg/mL (≈ 35 µM)
- MIC (Nakaseomyces glabratus [32]): ≤ 0.125 µg/mL
- Activity (Candida albicans [33]): Dose-Dependent Effect
- MIC (Saccharomyces cerevisiae [34]): 0.063 µg/mL
- Activity (Candida albicans [35]): 49.2%
- inhibition at 0.125 µg/mL (Candida albicans [36]): 100%
- inhibition (Candida parapsilosis [37]): Active
- MIC (Saccharomyces cerevisiae [38]): 0.125 µg/mL
- MIC (Saccharomyces cerevisiae [39]): 0.063 µg/mL
- MIC (Saccharomyces cerevisiae [40]): 0.016 µg/mL
- MIC (Candida albicans [41]): ≤ 0.125 µg/mL
- MIC (Saccharomyces cerevisiae [42]): 0.0313 µg/mL
- MIC (Pichia kudriavzevii): 4 µg/mL (≈ 8.74 µM)
- MIC (Candida albicans [43]): 8 µg/mL (≈ 17.5 µM)
- Ratio (Candida tropicalis [44]): 32

Source: ChEMBL document CHEMBL5579851, “Synthesis and antifungal evaluation of novel triazole derivatives bearing a pyrazole-methoxyl moiety” (Eur J Med Chem, 2024)
